Assay results reported in patent US11147272B2, “Pyridone compounds and agricultural and horticultural fungicides comprising the same as active ingredients” (MITSUI CHEMICALS AGRO, INC., priority 2017, dated 2021).

Tests used:
Magnaporthe grisea = test: whole plant or invertebrate; format: in vivo; conditions: Blast on rice; control value class
Alternaia brassicicola = test: Test Example C: Alternaria sooty spot on cabbage; format: in vivo; conditions: Alternaria sooty spot on cabbage; control value class
Excerpt: Seeds of a test plant (cabbage variety: Shikidori) were planted and cultivated until the cotyledons extended.
<Control Value> Control value=100{1−(n/3)}

Puccinia recondita = test: Test Example E: Brown rust on wheat; format: in vivo; conditions: Brown rust on wheat; control value class
Phytophthora infestans = test: whole plant or invertebrate; format: in vivo; conditions: Late blight on tomato; control value class
Botrytis cinerea = test: Test Example B: Gray mold on tomato; conditions: Gray mold on tomato; control value class
Plasmopara viticola = test: Test Example G: Downy mildew on vine; conditions: Downy mildew on vine; 250 ppm spray, 7 to 10 days after inoculation
[1] = system: Colletotrichum orbiculare; test: Test Example H: Anthracnose on cucumber; conditions: Anthracnose on cucumber; 250 ppm spray, 6 to 10 days after inoculation
[2] = system: Blumeria graminis f. sp. hordei; test: Test Example D: Powdery mildew on barley; conditions: Powdery mildew on barley; control value class

CCCc1ccc(=O)n(CC)c1-c1ccc(F)cc1Cl [compound 190]
Test A control value (Magnaporthe grisea): H (more than 50% control value)
Test C control value (Alternaia brassicicola): H (more than 50% control value)
Test E control value (Puccinia recondita): H (more than 50% control value)
Test F control value (Phytophthora infestans): L (50% or less control value)
Test B control value (Botrytis cinerea): H (more than 50% control value)
Test G control value (Plasmopara viticola): H (more than 50% control value)
Test H control value [1]: L (50% or less control value)
Test D control value [2]: H (more than 50% control value)

CCCc1cc(Cl)c(=O)n(CC)c1-c1ccc(F)cc1Cl [compound 191]
Test A control value (Magnaporthe grisea): H (more than 50% control value)
Test C control value (Alternaia brassicicola): H (more than 50% control value)
Test E control value (Puccinia recondita): H (more than 50% control value)
Test F control value (Phytophthora infestans): L (50% or less control value)
Test B control value (Botrytis cinerea): H (more than 50% control value)
Test G control value (Plasmopara viticola): H (more than 50% control value)
Test H control value [1]: H (more than 50% control value)
Test D control value [2]: H (more than 50% control value)

CCCc1cc(Br)c(=O)n(CC)c1-c1ccc(F)cc1Cl [compound 192]
Test A control value (Magnaporthe grisea): H (more than 50% control value)
Test C control value (Alternaia brassicicola): H (more than 50% control value)
Test E control value (Puccinia recondita): H (more than 50% control value)
Test F control value (Phytophthora infestans): L (50% or less control value)
Test B control value (Botrytis cinerea): H (more than 50% control value)
Test G control value (Plasmopara viticola): L (50% or less control value)
Test H control value [1]: H (more than 50% control value)
Test D control value [2]: H (more than 50% control value)

CCn1c(-c2ccc(O)cc2)c(CC(C)C)ccc1=O [compound 193]
Test A control value (Magnaporthe grisea): L (50% or less control value)
Test C control value (Alternaia brassicicola): H (more than 50% control value)
Test E control value (Puccinia recondita): L (50% or less control value)
Test F control value (Phytophthora infestans): L (50% or less control value)
Test B control value (Botrytis cinerea): L (50% or less control value)
Test G control value (Plasmopara viticola): L (50% or less control value)
Test H control value [1]: L (50% or less control value)
Test D control value [2]: L (50% or less control value)

CCn1c(-c2ccc(OC)cc2)c(CC(C)C)ccc1=O [compound 194]
Test A control value (Magnaporthe grisea): H (more than 50% control value)
Test C control value (Alternaia brassicicola): L (50% or less control value)
Test E control value (Puccinia recondita): H (more than 50% control value)
Test F control value (Phytophthora infestans): L (50% or less control value)
Test B control value (Botrytis cinerea): H (more than 50% control value)
Test G control value (Plasmopara viticola): L (50% or less control value)
Test H control value [1]: L (50% or less control value)
Test D control value [2]: H (more than 50% control value)

CCn1c(-c2ccc(OC)cc2)c(CC(C)C)cc(Cl)c1=O [compound 195]
Test A control value (Magnaporthe grisea): H (more than 50% control value)
Test C control value (Alternaia brassicicola): H (more than 50% control value)
Test E control value (Puccinia recondita): H (more than 50% control value)
Test F control value (Phytophthora infestans): L (50% or less control value)
Test B control value (Botrytis cinerea): H (more than 50% control value)
Test G control value (Plasmopara viticola): L (50% or less control value)
Test H control value [1]: H (more than 50% control value)
Test D control value [2]: H (more than 50% control value)

CCn1c(-c2ccc(OC)cc2)c(CC(C)C)cc(Br)c1=O [compound 196]
Test A control value (Magnaporthe grisea): H (more than 50% control value)
Test C control value (Alternaia brassicicola): H (more than 50% control value)
Test E control value (Puccinia recondita): H (more than 50% control value)
Test F control value (Phytophthora infestans): L (50% or less control value)
Test B control value (Botrytis cinerea): H (more than 50% control value)
Test G control value (Plasmopara viticola): L (50% or less control value)
Test H control value [1]: H (more than 50% control value)
Test D control value [2]: L (50% or less control value)

C=C(c1cc(Cl)c(=O)n(CC)c1-c1c(F)cccc1F)C(C)C [compound 197]
Test A control value (Magnaporthe grisea): H (more than 50% control value)
Test C control value (Alternaia brassicicola): H (more than 50% control value)
Test E control value (Puccinia recondita): H (more than 50% control value)
Test F control value (Phytophthora infestans): L (50% or less control value)
Test B control value (Botrytis cinerea): H (more than 50% control value)
Test G control value (Plasmopara viticola): H (more than 50% control value)
Test H control value [1]: H (more than 50% control value)
Test D control value [2]: H (more than 50% control value)

CCn1c(-c2c(F)cccc2F)c(C(C)C(C)C)cc(Cl)c1=O (stereo not shown) [compound 198]
Test A control value (Magnaporthe grisea): H (more than 50% control value)
Test C control value (Alternaia brassicicola): H (more than 50% control value)
Test E control value (Puccinia recondita): H (more than 50% control value)
Test F control value (Phytophthora infestans): L (50% or less control value)
Test B control value (Botrytis cinerea): H (more than 50% control value)
Test G control value (Plasmopara viticola): L (50% or less control value)
Test H control value [1]: H (more than 50% control value)
Test D control value [2]: H (more than 50% control value)

CCn1c(-c2ccc(F)cc2Br)c(CC(C)C)ccc1=O [compound 199]
Test A control value (Magnaporthe grisea): H (more than 50% control value)
Test C control value (Alternaia brassicicola): H (more than 50% control value)
Test E control value (Puccinia recondita): H (more than 50% control value)
Test F control value (Phytophthora infestans): H (more than 50% control value)
Test B control value (Botrytis cinerea): H (more than 50% control value)
Test G control value (Plasmopara viticola): H (more than 50% control value)
Test H control value [1]: H (more than 50% control value)
Test D control value [2]: H (more than 50% control value)

CCn1c(-c2ccc(F)cc2Br)c(CC(C)C)cc(Cl)c1=O [compound 200]
Test A control value (Magnaporthe grisea): H (more than 50% control value)
Test C control value (Alternaia brassicicola): H (more than 50% control value)
Test E control value (Puccinia recondita): H (more than 50% control value)
Test F control value (Phytophthora infestans): H (more than 50% control value)
Test B control value (Botrytis cinerea): H (more than 50% control value)
Test G control value (Plasmopara viticola): H (more than 50% control value)
Test H control value [1]: H (more than 50% control value)
Test D control value [2]: H (more than 50% control value)

CCn1c(-c2ccc(F)cc2Br)c(CC(C)C)cc(Br)c1=O [compound 201]
Test A control value (Magnaporthe grisea): H (more than 50% control value)
Test C control value (Alternaia brassicicola): H (more than 50% control value)
Test E control value (Puccinia recondita): H (more than 50% control value)
Test F control value (Phytophthora infestans): L (50% or less control value)
Test B control value (Botrytis cinerea): H (more than 50% control value)
Test G control value (Plasmopara viticola): H (more than 50% control value)
Test H control value [1]: H (more than 50% control value)
Test D control value [2]: H (more than 50% control value)

CCn1c(-c2ccc(F)cc2C)c(CC(C)C)ccc1=O [compound 202]
Test A control value (Magnaporthe grisea): H (more than 50% control value)
Test C control value (Alternaia brassicicola): L (50% or less control value)
Test E control value (Puccinia recondita): H (more than 50% control value)
Test F control value (Phytophthora infestans): L (50% or less control value)
Test B control value (Botrytis cinerea): H (more than 50% control value)
Test G control value (Plasmopara viticola): H (more than 50% control value)
Test H control value [1]: L (50% or less control value)
Test D control value [2]: H (more than 50% control value)

CCn1c(-c2ccc(F)cc2C)c(CC(C)C)cc(Cl)c1=O [compound 203]
Test A control value (Magnaporthe grisea): H (more than 50% control value)
Test C control value (Alternaia brassicicola): H (more than 50% control value)
Test E control value (Puccinia recondita): H (more than 50% control value)
Test F control value (Phytophthora infestans): H (more than 50% control value)
Test B control value (Botrytis cinerea): H (more than 50% control value)
Test G control value (Plasmopara viticola): H (more than 50% control value)
Test H control value [1]: H (more than 50% control value)
Test D control value [2]: H (more than 50% control value)

CCn1c(-c2ccc(F)cc2C)c(CC(C)C)cc(Br)c1=O [compound 204]
Test A control value (Magnaporthe grisea): H (more than 50% control value)
Test C control value (Alternaia brassicicola): H (more than 50% control value)
Test E control value (Puccinia recondita): H (more than 50% control value)
Test F control value (Phytophthora infestans): L (50% or less control value)
Test B control value (Botrytis cinerea): H (more than 50% control value)
Test G control value (Plasmopara viticola): H (more than 50% control value)
Test H control value [1]: H (more than 50% control value)
Test D control value [2]: H (more than 50% control value)

CCCCc1ccc(=O)n(CC)c1-c1ccc(F)cc1Cl [compound 205]
Test A control value (Magnaporthe grisea): H (more than 50% control value)
Test C control value (Alternaia brassicicola): H (more than 50% control value)
Test E control value (Puccinia recondita): H (more than 50% control value)
Test F control value (Phytophthora infestans): L (50% or less control value)
Test B control value (Botrytis cinerea): H (more than 50% control value)
Test G control value (Plasmopara viticola): H (more than 50% control value)
Test H control value [1]: L (50% or less control value)
Test D control value [2]: H (more than 50% control value)

CCCCc1cc(Cl)c(=O)n(CC)c1-c1ccc(F)cc1Cl [compound 206]
Test A control value (Magnaporthe grisea): H (more than 50% control value)
Test C control value (Alternaia brassicicola): H (more than 50% control value)
Test E control value (Puccinia recondita): H (more than 50% control value)
Test F control value (Phytophthora infestans): H (more than 50% control value)
Test B control value (Botrytis cinerea): H (more than 50% control value)
Test G control value (Plasmopara viticola): H (more than 50% control value)
Test H control value [1]: H (more than 50% control value)
Test D control value [2]: H (more than 50% control value)
